Experimental data from patent US4181797A, “1-N-(ω-amino-α-hydroxyalkanoyl) derivatives of 4'-deoxy-6'-N-methylkanamycin A” (Bristol-Myers Company, priority 1978, dated 1980).
≈ marks a conversion by molar mass, not a printed value.

Tests used:
P. mirabilis A9900 = experiment: MIC in Mueller-Hinton agar, kanamycin-sensitive strain; assay type: cell-based; settings: Proteus mirabilis, A9900
Method: (§1) The Minimum Inhibitory Concentrations (MIC's) of BB-K311, amikacin and kanamycin A were determined in Mueller-Hinton agar against a number of kanamycin-sensitive and kanamycin-resistant strains of organisms.

P. stuartii A20615 = experiment: as above; assay type: cell-based; settings: Providencia stuartii, A20615
Method: as §1

B. brevis ATCC8185 = experiment: as above; assay type: cell-based; settings: Brevibacillus brevis, ATCC8185
Method: as §1

P. vulgaris A9526 = experiment: as above; assay type: cell-based; settings: Proteus vulgaris, A9526
Method: as §1

P. Morganii A20031 = experiment: as above; assay type: cell-based; settings: Morganella morganii
Method: as §1

S. aureus Smith = experiment: as above; assay type: cell-based; settings: Staphylococcus aureus
Method: as §1

E. coli A9632 = experiment: as above; assay type: cell-based; settings: Escherichia coli, A9632
Method: as §1

S. marcescens A20019 = experiment: as above; assay type: cell-based; settings: Serratia marcescens, A20019
Method: as §1

K. pneumoniae A15130 = experiment: as above; assay type: cell-based; settings: Klebsiella pneumoniae, A15130
Method: as §1

E. cloacae A20464 = experiment: as above; assay type: cell-based; settings: Enterobacter cloacae, A20464
Method: as §1

B. brevis IFO 12334 = experiment: MIC in Mueller-Hinton agar, ANT(4')-producing strain; assay type: cell-based; settings: Brevibacillus brevis, IFO12334
Method: as §1

S. epidermidis A22033 = experiment: as above; assay type: cell-based; settings: Staphylococcus epidermidis, A22033
Method: as §1

S. aureus A22054 = experiment: as above; assay type: cell-based; settings: Staphylococcus aureus, A22054
Method: as §1

E. coli A20363 = experiment: MIC in Mueller-Hinton agar, APH(3')-I producer; assay type: cell-based; settings: Escherichia coli, A20363
Method: as §1

E. cloacae A20364 = experiment: MIC in Mueller-Hinton agar, APH(3')-I producer; assay type: cell-based; settings: Enterobacter cloacae, A20364
Method: as §1

S. epidermidis A22152 = experiment: MIC in Mueller-Hinton agar, AAC(6')-producing strain; assay type: cell-based; settings: Staphylococcus epidermidis, A22152
Method: as §1

S. marcescens A21235 = experiment: as above; assay type: cell-based; settings: Serratia marcescens, A21235
Method: as §1

P. aeruginosa GN4925 = experiment: as above; assay type: cell-based; settings: Pseudomonas aeruginosa, GN4925
Method: as §1

P. aeruginosa GN315 = experiment: as above; assay type: cell-based; settings: Pseudomonas aeruginosa, GN315
Method: as §1

S. marcescens A22382 = experiment: as above; assay type: cell-based; settings: Serratia marcescens, A22382
Method: as §1

P. rettgeri HM-56 = experiment: as above; assay type: cell-based; settings: Providencia rettgeri, HM56
Method: as §1

E. cloacae HM-43 = experiment: as above; assay type: cell-based; settings: Enterobacter cloacae, HM43
Method: as §1

S. marcescens A21226 = experiment: as above; assay type: cell-based; settings: Serratia marcescens, A21226
Method: as §1

S. aureus A22153 = experiment: as above; assay type: cell-based; settings: Staphylococcus aureus, A22153
Method: as §1

S. marcescens A22288 = experiment: as above; assay type: cell-based; settings: Serratia marcescens, A22288
Method: as §1

S. epidermidis A22211 = experiment: as above; assay type: cell-based; settings: Staphylococcus epidermidis, A22211
Method: as §1

S. aureus A22421 = experiment: as above; assay type: cell-based; settings: Staphylococcus aureus, A22421
Method: as §1

E. coli A2128 = experiment: as above; assay type: cell-based; settings: Escherichia coli, A2128
Method: as §1

E. cloacae A21006 = experiment: MIC in Mueller-Hinton agar, APH(3')-II producer; assay type: cell-based; settings: Enterobacter cloacae, A21006
Method: as §1

E. coli A20107 = experiment: MIC in Mueller-Hinton agar, APH(3')-II producer; assay type: cell-based; settings: Escherichia coli, A20107
Method: as §1

[1] = test system: strains which phosphorylate the 3'-hydroxy group; settings: background statement; cited from earlier work
E. coli A20732 = experiment: MIC in Mueller-Hinton agar, ANT(2") producer; assay type: cell-based; settings: Escherichia coli, A20732
Method: as §1

E. coli A20895 = experiment: MIC in Mueller-Hinton agar, AAC(3)-I producer; assay type: cell-based; settings: Escherichia coli, A20895
Method: as §1

[2] = test system: kanamycin phosphotransferase Type-II; settings: The Journal of Antibiotics, 27, 722-725 and 838-850 (1974); cited from earlier work

NC[C@H]1O[C@H](O[C@H]2[C@H](O)[C@@H](O[C@H]3O[C@H](CO)[C@@H](O)[C@H](N)[C@H]3O)[C@H](N)C[C@@H]2N)[C@H](O)[C@@H](O)[C@@H]1O [Kanamycin A, kanamycin A]
MIC (P. mirabilis A9900): 1.6 µg/mL (≈ 3.3 µM)
MIC (P. stuartii A20615): 1.6 µg/mL (≈ 3.3 µM)
MIC (B. brevis ATCC8185): 1.6 µg/mL (≈ 3.3 µM)
MIC (P. vulgaris A9526): 0.8 µg/mL (≈ 1.65 µM)
MIC (P. Morganii A20031): 3.1 µg/mL (≈ 6.4 µM)
MIC (S. aureus Smith): 0.8 µg/mL (≈ 1.65 µM)
MIC (E. coli A9632): 1.6 µg/mL (≈ 3.3 µM)
MIC (S. marcescens A20019): 1.6 µg/mL (≈ 3.3 µM)
MIC (K. pneumoniae A15130): 1.6 µg/mL (≈ 3.3 µM)
MIC (E. cloacae A20464): 6.3 µg/mL (≈ 13 µM)
MIC (B. brevis IFO 12334): > 100 µg/mL
MIC (S. epidermidis A22033): 50 µg/mL (≈ 103 µM)
MIC (S. aureus A22054): > 100 µg/mL
MIC (E. coli A20363): 100 µg/mL (≈ 206 µM)
MIC (E. cloacae A20364): 100 µg/mL (≈ 206 µM)
MIC (S. epidermidis A22152): > 100 µg/mL
MIC (S. marcescens A21235): 50 µg/mL (≈ 103 µM)
MIC (P. aeruginosa GN4925): 100 µg/mL (≈ 206 µM)
MIC (P. aeruginosa GN315): > 100 µg/mL
MIC (S. marcescens A22382): 25 µg/mL (≈ 51.6 µM)
MIC (P. rettgeri HM-56): > 100 µg/mL
MIC (E. cloacae HM-43): > 100 µg/mL
MIC (S. marcescens A21226): 12.5 µg/mL (≈ 25.8 µM)
MIC (S. aureus A22153): > 100 µg/mL
MIC (S. marcescens A22288): > 100 µg/mL
MIC (S. epidermidis A22211): > 100 µg/mL
MIC (S. aureus A22421): > 100 µg/mL
MIC (E. coli A2128): 100 µg/mL (≈ 206 µM)
MIC (E. cloacae A21006): 100 µg/mL (≈ 206 µM)
MIC (E. coli A20107): 100 µg/mL (≈ 206 µM)
activity against 3'-hydroxy phosphorylating strains [1]: certain strains of Gram-negative bacteria are resistant to kanamycin A
MIC (E. coli A20732): 25 µg/mL (≈ 51.6 µM)
MIC (E. coli A20895): 1.6 µg/mL (≈ 3.3 µM)

NCC1CC(O)C(O)C(OC2C(N)CC(N)C(OC3OC(CO)C(O)C(N)C3O)C2O)O1 (stereo not shown) [4'-deoxykanamycin]
resistance to kanamycin phosphotransferase Type-II [2]: resistance to kanamycin phosphotransferase Type-II
